Tests used:
[1] = target: KRAS G12C (Homo sapiens, UniProt P01116, G12C); assay: GDP-GTP exchange assay (KRAS_G12C exchange); format: biochemical; details: bodipy-GDP loaded KRAS G12C 2.5 nM, SOS1 150 nM, GppNHp; 2 hours pre-incubation, 2 hours reaction; read-out: G12C_exchange
Summary of the method: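 Fluorescence exchange of bodipy-GDP for GppNHp, SOS1-driven, read at 485/520 nm; IC50 from four-parameter variable-slope fit. Both mutants used 2.5 nM final labelled protein and a 2 h compound pre-incubation. G12C reaction had 500 uM GppNHp and 150 nM SOS1 for 2 h; G12D ran 4 h.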

[2] = tested on: MIA PaCa-2 (KRAS G12C) cells; assay: Cellular pERK HTRF assay (KRAS_G12C pERK); format: cell-based, human; details: Homo sapiens, MIA PaCa-2, 4 hours incubation, read-out: G12C_pERK
Summary of the method: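 MIA PaCa-2 cells plated overnight, then exposed to compound for 4 h at 37 °C (G12C compounds). Phospho-ERK1/2 measured in lysates by HTRF (665/620 nm) after overnight antibody incubation; IC50 from percent inhibition versus log concentration.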

KRAS G12C, sequence (P01116 1-188 isoform P01116-2 G12C): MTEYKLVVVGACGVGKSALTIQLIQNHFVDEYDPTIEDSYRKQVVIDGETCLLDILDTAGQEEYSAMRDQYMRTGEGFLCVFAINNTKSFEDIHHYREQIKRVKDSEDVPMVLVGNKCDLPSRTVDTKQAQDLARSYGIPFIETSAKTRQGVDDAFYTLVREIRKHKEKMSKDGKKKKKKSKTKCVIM

Row | IC50 [1] [nM] | IC50 [2] [nM] | Structure (SMILES)
1 | ≤ 100 | ≤ 100 | COC/C=C/C(=O)N1CC[C@H](n2cnc3c(N4CC5(CCCN5C)C4)nc4c(F)c(-c5c(C)c(Cl)cc6[nH]ncc56)c(Cl)cc4c32)C[C@H]1CC#N [Example 84a, 2-((2S,4S)-4-(8-chloro-7-(6-chloro-5-methyl-1H-indazol-4-yl)-6-fluoro-4-(5-methyl-2,5-diazaspiro[3.4]octan-2-yl)-1H-imidazo[4,5-c]quinolin-1-yl)-1-((E)-4-methoxybut-2-enoyl)piperidin-2-yl)acetonitrile]
2 | ≤ 100 | ≤ 100 | C=CC(=O)N1CC[C@H](n2nnc3c(OC[C@@H]4CCCN4C)nc4c(F)c(-c5ccc(F)c(Cl)c5)c(Cl)cc4c32)C[C@H]1CC#N [Example 85, 2-((2S,4S)-1-acryloyl-4-(8-chloro-7-(3-chloro-4-fluorophenyl)-6-fluoro-4-(((S)-1-methylpyrrolidin-2-yl)methoxy)-1H-[1,2,3]triazolo[4,5-c]quinolin-1-yl)piperidin-2-yl)acetonitrile]
3 | ≤ 100 | ≤ 100 | C=CC(=O)N1CC[C@H](n2nnc3c(OC[C@@H]4CCCN4C)nc4c(F)c(-c5cccc(Cl)c5C)c(Cl)cc4c32)C[C@H]1CC#N [Example 86, 2-((2S,4S)-1-acryloyl-4-(8-chloro-7-(3-chloro-2-methylphenyl)-6-fluoro-4-(((S)-1-methylpyrrolidin-2-yl)methoxy)-1H-[1,2,3]triazolo[4,5-c]quinolin-1-yl)piperidin-2-yl)acetonitrile]
4 | ≤ 100 | ≤ 100 | Cc1c(Cl)cccc1-c1c(Cl)cc2c(nc(OC[C@@H]3CCCN3C)c3nnn([C@H]4CCN(C(=O)/C=C/CN(C)C)[C@H](CC#N)C4)c32)c1F [Example 88, 2-((2S,4S)-4-(8-chloro-7-(3-chloro-2-methylphenyl)-6-fluoro-4-(((S)-1-methylpyrrolidin-2-yl)methoxy)-1H-[1,2,3]triazolo[4,5-c]quinolin-1-yl)-1-((E)-4-(dimethylamino)but-2-enoyl)piperidin-2-yl)acetonitrile]
5 | ≤ 100 | ≤ 100 | C=CC(=O)N1CC[C@H](n2cnc3c(N4CC(N(C)C)C4)nc4c(F)c(-c5cncc(Cl)c5C)c(Cl)cc4c32)C[C@H]1CC#N [Example 89, 2-((2S,4S)-1-acryloyl-4-(8-chloro-7-(5-chloro-4-methylpyridin-3-yl)-4-(3-(dimethylamino)azetidin-1-yl)-6-fluoro-1H-imidazo[4,5-c]quinolin-1-yl)piperidin-2-yl)acetonitrile]
6 | ≤ 100 | ≤ 100 | C=CC(=O)N1CC[C@H](n2cnc3c(N4CC(N(C)C)C4)nc4c(F)c(-c5c(OC)ncc(Cl)c5C)c(Cl)cc4c32)C[C@H]1CC#N [Example 90, 2-((2S,4S)-1-acryloyl-4-(8-chloro-7-(5-chloro-2-methoxy-4-methylpyridin-3-yl)-4-(3-(dimethylamino)azetidin-1-yl)-6-fluoro-1H-imidazo[4,5-c]quinolin-1-yl)piperidin-2-yl)acetonitrile]
7 | ≤ 100 | ≤ 100 | CC#CC(=O)N1CC[C@H](n2nnc3c(N4CCOCC4=O)nc4c(F)c(-c5cccc(Cl)c5C)c(Cl)cc4c32)C[C@H]1CC#N [Example 91, 2-((2S,4S)-1-(but-2-ynoyl)-4-(8-chloro-7-(3-chloro-2-methylphenyl)-6-fluoro-4-(3-oxomorpholino)-1H-[1,2,3]triazolo[4,5-c]quinolin-1-yl)piperidin-2-yl)acetonitrile]
8 | ≤ 100 | ≤ 100 | CC#CC(=O)N1CC[C@H](n2nnc3c(N4CCN(C)CC4=O)nc4c(F)c(-c5cccc(Cl)c5C)c(Cl)cc4c32)C[C@H]1CC#N [Example 92, 2-((2S,4S)-1-(but-2-ynoyl)-4-(8-chloro-7-(3-chloro-2-methylphenyl)-6-fluoro-4-(4-methyl-2-oxopiperazin-1-yl)-1H-[1,2,3]triazolo[4,5-c]quinolin-1-yl)piperidin-2-yl)acetonitrile]

Reference: US20210269434A1, “TRICYCLIC COMPOUNDS AS INHIBITORS OF KRAS” (Incyte Corporation, priority 2020, published 2021)
